Assay results published in patent US20200261534A1, “NEW TREATMENTS OF MULTIPLE MYELOMA” (priority 2017, published 2020).
Like-named read-outs stand apart in the source and are kept apart here. Starred links: 1 amine or outer side, 2 acyl side, 3 side chain; linkers in the order of their positions; H or OH if unused. Positions of bridges follow the written chain, without caps; N, C: chain ends. Non-standard residues stand in square brackets, D forms with d. Residues, ends and D or L forms follow the SMILES beside them. No end group written: not given here. ξ: configuration not given here. ξαMeNle(6-ylidene) = CC(CCCC=[*:3])(N[*:1])C(=O)[*:2]; X1 = CC(CCCCCCC=[*:3])(N[*:1])C(=O)[*:2]

Tests used:
Format in all cases: cell-based
[1] = system: MM.1S, B Lymphoblast (multiple myeloma); assay: MTT viability assay, MM.1S
Description: MM.1S, B Lymphoblast (multiple myeloma), ATCC: CRL-2974
(§1) Cell lines A549, MCF-7 and RAMOS were cultured in incubator under CO2 (6%) at 37° C. in DMEM high glucose (Dulbecco's Modified Eagle Solution, Gibco-BRL 31966-21) medium with 10% fetal bovine serum inactivated (FBS) (Gibco-BRL 10106-169). Cell lines HL-60 and MM.1S were cultured in incubator at 37° C. in RPMI-1640 (Sigma R8758) medium with 10% of fetal bovine serum inactivated (FBS) and 2 mM glutamine (Sigma G7513). Cell lines BJ were cultured in incubator under CO2 (6%) at 37° C. in Eagle's Minimum Essential Medium (Sigma, M-2279) with 10% fetal bovine serum inactivated (FBS) (Gibco-BRL 10106-169).
(§2) During the amplification step and the assays adherent cells were rinsed with DPBS (Dulbecco's Phosphate Buffered Saline, Sigma D1283) three times and afterward treated for 5 minutes with trypsin ([…]) (Gibco-BRL, 15400054) in solution of DPBS at 37° C., and, once detached, transferred in the culturing medium. No-adherent cells were centrifuged and transferred in the culturing medium. Cells were counted in a Neubauer chamber after labelling with Tripan-Blue.
Cells were seeded at a density of 10000 cells/well in 100 μl of medium in 96 well plates. After 24 h, the compounds to be tested were added to calculate the dose/response curve at the starting concentration of 100 μM with serial dilutions (1:1). Controls are the untreated cells. Each experiment was performed in triplicate.
(§3) Cells were incubated with the compounds at the indicated concentrations during 24-72 h in incubator under CO2 atmosphere at 37° C. Then, cell viability was measured by means of MTT (3-(4,5-dimethylthiazol-2-yl)-2,5-diphenyltetrazolium bromide) assay. Stock solution of MTT (475989 Calbiochem) was 5 mg/ml in PBS. 1×.10 μl/well of MTT solution were added and the plate was incubated for 3-4 hr. The medium was discarded and 100 μl of extracting buffer (PBS 1×, 15% SDS, 50% […] N,N-Dimethylformamide, pH 4.7) were added to each well. Plates were incubated for 16 h at room temperature under orbital shaking. Absorbance at 570 nm was finally measured. As negative control (experiment noise) 3 wells were treated with 20 μl/well of a solution of SDS 10% in H2O.
(§4) Data analysis was performed calculating the percentage of cell viability normalized vs. the values of negative control, which was considered equal to 100%. The dose/response curve was fitted through the sigmoidal equation dose-response (variable slope) and the IC50 values were calculated as follow:
Y=Bottom+(Top−Bottom)/(1+10^{[(LogIC50−X)*HillSlope]},
All cell lines were cultured in incubator at 37° C. in RPMI-1640 (Sigma R8758) medium with 10% of fetal bovine serum inactivated (FBS) and 2 mM glutamine (Sigma G7513). During the amplification step cells were centrifuged and transferred into the culturing medium. Cells were counted in a Neubauer chamber after labelling with Tripan-Blue.
as §3, with “peptidomimetic compound (S09)” for “compounds”
Cell lines A549 and MBA-MD231 were cultured in incubator under CO2 (6%) at 37° C. in DMEM high glucose (Dulbecco's Modified Eagle Solution, Gibco-BRL 31966-21) medium with 10% fetal bovine serum inactivated (FBS) (Gibco-BRL 10106-169). […]

[2] = system: A549, epithelial (lung cancer); assay: MTT viability assay, A549
Description: A549, epithelial (lung cancer), ATCC: CCL-185
as §1
as §2, with “Tripan-Blue. […]” for “Tripan-Blue.”
as §3
as §4, with “follow: […]” for “follow:”

[3] = system: HL-60, promyeloblast (acute myelocytic leukemia, AML); assay: MTT viability assay, HL-60
Description: HL-60, promyeloblast (acute myelocytic leukemia, AML), ECACC: 98070106 […] During the amplification step and the assays adherent cells were rinsed with DPBS (Dulbecco's Phosphate Buffered Saline, Sigma D1283) three times and afterward treated for 5 minutes with trypsin ([…]) (Gibco-BRL, 15400054) in solution of DPBS at 37° C., and, once detached, transferred in the culturing medium. No-adherent cells were centrifuged and transferred in the culturing medium. Cells were counted in a Neubauer chamber after labelling with Tripan-Blue. […] Cells were seeded at a density of 10000 cells/well in 100 μl of medium in 96 well plates. […] Controls are the untreated cells. Each experiment was performed in triplicate. Cells were incubated with the compounds at the indicated concentrations during 24-72 h in incubator under CO2 atmosphere at 37° C. […] Stock solution of MTT (475989 Calbiochem) was 5 mg/ml in PBS. 1×.10 μl/well of MTT solution were added and the plate was incubated for 3-4 hr. […] Plates were incubated for 16 h at room temperature under orbital shaking. Absorbance at 570 nm was finally measured. […] The dose/response curve was fitted through the sigmoidal equation dose-response (variable slope) and the IC50 values were calculated as follow: Y=Bottom+(Top−Bottom)/(1+10^{[(LogIC50−X)*HillSlope]},

[4] = MM.1S, same protocol as Example 2, Table 6, read-out: Compound (IC50)
[5] = A549, same protocol as Example 2, Table 6, read-out: Compound (IC50)
[6] = HL-60, same protocol as Example 2, Table 6, read-out: Compound (IC50)

Molecule: CC[C@H](C)[C@@H]1NC(=O)[C@H](Cc2ccc(O)cc2)NC(=O)[C@H](C)NC(=O)[C@H]([C@@H](C)O)NC(=O)[C@H](C)NC(=O)C(C)(NC(=O)[C@H](CCCCN)NC(=O)[C@H](CC(C)C)NC(=O)[C@@H](NC(=O)[C@@H](NC(=O)[C@@H](NC(=O)[C@H](CCCCN)NC(=O)[C@@H]2CCCN2C(=O)[C@H](C)N)C(C)C)C(C)C)[C@@H](C)CC)CCCCCCC=CCCCC(C)(C(=O)N[C@H](C(=O)O)C(C)C)NC(=O)[C@H](CC(C)C)NC1=O (stereo partly shown) [IDP-S23, APKVVILKXATAYILXV] (H-APKVVILK[X1]ATAYIL[ξαMeNle(6-ylidene)]V-OH; staple 9-16)
- IC50 [1, 4]: > 100 µM
- IC50 [2, 5]: > 100 µM
- IC50 [3, 6]: > 100 µM

Molecule: CC[C@H](C)[C@H](NC(=O)[C@H](Cc1ccc(O)cc1)NC(=O)[C@H](C)NC(=O)C1(C)CCCC=CCCCCCCC(C)(NC(=O)[C@H](CCCCN)NC(=O)[C@@H]2CCCN2C(=O)[C@H](C)N)C(=O)N[C@@H](C(C)C)C(=O)N[C@@H]([C@@H](C)CC)C(=O)N[C@@H](CC(C)C)C(=O)N[C@@H](CCCCN)C(=O)N[C@@H](CCCCN)C(=O)N[C@@H](C)C(=O)N1)C(=O)N[C@@H](CC(C)C)C(=O)N[C@@H](CO)C(=O)O (stereo partly shown) [S09, APKXVILKKAXAYILS—OH] (H-APK[X1]VILKKA[ξαMeNle(6-ylidene)]AYILS-OH; staple 4-11; N-terminus assumed)
- IC50 ([1]; MM1S, MTT, 24-72 h, Table 7, read-out: IC50 values in μM for S09): 7.5 µM
- IC50 ([1]; MM.1S, MTT, incubation 24-72 h, Table 3, read-out: IC50 values): ~6.2 µM
- IC50 [1, 4]: ~6.2 µM
- IC50 ([2]; A549, MTT, 24-72 h, Table 12, read-out: IC50 values): 6.3 ± 0.5 µM
- IC50 ([2]; A549, MTT, incubation 24-72 h, Table 3, read-out: IC50 values): 9.4 ± 4.1 µM
- IC50 [2, 5]: 9.4 ± 4.1 µM
- IC50 ([3]; HL-60, MTT, incubation 24-72 h, Table 3, read-out: IC50 values): 3.5 ± 0.2 µM
- IC50 [3, 6]: 3.5 ± 0.2 µM

Molecule: CC[C@H](C)[C@H](NC(=O)[C@H](Cc1ccc(O)cc1)NC(=O)[C@H](C)NC(=O)C1(C)CCCC=CCCCCCCC(C)(NC(=O)[C@H](CCCCN)NC(=O)[C@@H]2CCCN2C(=O)[C@H](C)N)C(=O)N[C@@H](C(C)C)C(=O)N[C@@H]([C@@H](C)CC)C(=O)N[C@@H](Cc2ccccc2)C(=O)N[C@@H](CCCCN)C(=O)N[C@@H](CCCCN)C(=O)N[C@@H](C)C(=O)N1)C(=O)N[C@@H](CC(C)C)C(=O)N[C@@H](CO)C(=O)O (stereo partly shown) [S14, APKXVIFKKAXAYILS—OH] (H-APK[X1]VIFKKA[ξαMeNle(6-ylidene)]AYILS-OH; staple 4-11; N-terminus assumed)
- IC50 [1]: 6.6 ± 0.9 µM
- IC50 ([1]; 24 h): 7 µM
- IC50 ([1]; 72 h): 7 µM
- IC50 [2]: 9.1 ± 0.8 µM
- IC50 [3]: 7.8 ± 0.4 µM

Molecule: RQIKIWFQNRRMKWKKNELKRAFAALRDQI [Int-HI-S6A-F8, reference compound]
- IC50 [1]: > 100 µM
- IC50 [2]: > 100 µM
- IC50 [3]: > 100 µM
